Data on seven compounds can be found in patent US9725414B2, “Fungicidal N-bicycloalkyl and N-tricycloalkyl pyrazole-4-(thio)carboxamide derivatives” (priority 2011, dated 2017).

By logP is commonly meant a log measure of how a compound divides between an organic and an aqueous phase.

For data set [1], the system named is Septoria tritici. In words: Example H: in vivo preventive test on Septoria tritici (wheat), N,N-dimethylacetamide/emulsifier preparation. To be noted: 500 ppm of active ingredient, evaluated 21 days after inoculation. The method, then: (§1) In Vivo Preventive Test on Septoria tritici (Wheat) Solvent: 49 parts by weight of N,N-dimethylacetamide Emulsifier: 1 part by weight of alkylaryl polyglycol ether To produce a suitable preparation of active compound, 1 part by weight of active compound or active compound combination is mixed with the stated amounts of solvent and emulsifier, and the concentrate is diluted with water to the desired concentration. To test for preventive activity, young plants are sprayed with the preparation of active compound or active compound combination at the stated rate of application. After the spray coating has been dried, the plants are sprayed with a spore suspension of Septoria tritici. The plants remain for 48 hours in an incubation cabinet at approximately 20° C. and a relative atmospheric humidity of approximately 100% and afterwards for 60 hours at approximately 15° C. in a translucent incubation cabinet at a relative atmospheric humidity of approximately 100%.

Data set [2] can be described thus: log P by HPLC on reversed-phase column (C 18), EEC Directive 79831 Annex V.A8. The settings on record: HPLC reversed-phase C 18, 40° C., 0.1% aqueous formic acid and acetonitrile gradient; several values = mixture of two or more isomers. In kind it is physicochemical. In a few lines: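 Reversed-phase C18 HPLC at 40° C, 0.1% aqueous formic acid/acetonitrile linear gradient 10% to 90% acetonitrile, per EEC Directive 79831 Annex V.A8. log P obtained from retention time by linear interpolation between unbranched alkan-2-ones (C3-C16) of known log P.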

Data set [3] concerns Fusarium nivale (var. majus). The data set can be described thus: Example N: in vivo preventive test on Fusarium nivale (wheat). The settings on record: 500 ppm of active ingredient, evaluated 5 days after inoculation. The method, then: In Vivo Preventive Test on Fusarium nivale (Wheat) Solvent: 49 parts by weight of N,N-dimethylacetamide Emulsifier: 1 part by weight of alkylaryl polyglycol ether To produce a suitable preparation of active compound, 1 part by weight of active compound or active compound combination is mixed with the stated amounts of solvent and emulsifier, and the concentrate is diluted with water to the desired concentration. To test for preventive activity, young plants are sprayed with the preparation of active compound or active compound combination at the stated rate of application. After the spray coating has been dried, the plants are slightly injured by using a sandblast and afterwards they are sprayed with a conidia suspension of Fusarium nivale (var. majus). The plants are placed in the greenhouse under a translucent incubation cabinet at a temperature of approximately 10° C. and a relative atmospheric humidity of approximately 100%.

The test system of data set [4] is Puccinia triticina. The data set can be described thus: Example L: in vivo preventive test on Puccinia triticina (wheat). To be noted: 500 ppm of active ingredient, evaluated 8 days after inoculation. The protocol:
In Vivo Preventive Test on Puccinia triticina (Wheat)
Solvent: 49 parts by weight of N,N-dimethylacetamide
Emulsifier: 1 part by weight of alkylaryl polyglycol ether
To produce a suitable preparation of active compound, 1 part by weight of active compound or active compound combination is mixed with the stated amounts of solvent and emulsifier, and the concentrate is diluted with water to the desired concentration.
To test for preventive activity, young plants are sprayed with the preparation of active compound or active compound combination at the stated rate of application.
After the spray coating has been dried, the plants are sprayed with a spore suspension of Puccinia triticina.
The plants remain for 48 hours in an incubation cabinet at approximately 20° C. and a relative atmospheric humidity of approximately 100%.
The plants are placed in the greenhouse at a temperature of approximately 20° C. and a relative atmospheric humidity of approximately 80%.
The test is evaluated 8 days after the inoculation. 0% means an efficacy which corresponds to that of the untreated control, while an efficacy of 100% means that no disease is observed.

Data set [5] relates to Blumeria graminis f.sp. hordei. The data set can be described thus: Example J: in vivo preventive test on Blumeria graminis (barley). The settings on record: 500 ppm of active ingredient, evaluated 7 days after inoculation. The method, then:
In Vivo Preventive Test on Blumeria graminis (Barley) Solvent: 49 parts by weight of N,N-dimethylacetamide Emulsifier: 1 part by weight of alkylaryl polyglycol ether To produce a suitable preparation of active compound, 1 part by weight of active compound or active compound combination is mixed with the stated amounts of solvent and emulsifier, and the concentrate is diluted with water to the desired concentration. To test for preventive activity, young plants are sprayed with the preparation of active compound or active compound combination at the stated rate of application. After the spray coating has been dried, the plants are dusted with spores of Blumeria graminis f.sp. hordei.

Data set [6] has as its system Leptosphaeria nodorum. The data set can be described thus: Example K: in vivo preventive test on Leptosphaeria nodorum (wheat). To be noted: 500 ppm of active ingredient, evaluated 8 days after inoculation. The protocol:
as §1, with “Leptosphaeria nodorum” for “Septoria tritici”, “Leptosphaeria nodorum.” for “Septoria tritici.”, “approximately” for “approximately 100% and afterwards for 60 hours at approximately 15° C. in a translucent incubation cabinet at a relative atmospheric humidity of approximately”

The subject of data set [7] is Puccinia recondita. In words: Example M: in vivo preventive test on Puccinia recondita (brown rust on wheat). To be noted: 500 ppm of active ingredient, grading 12 days after contamination. In a few lines:
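Wheat (Scipion) sprayed with compound at 1-leaf stage, grown at 22° C. Inoculated 24 h later with a spore suspension at 100 000 spores per mL. Efficacy (%) graded 12 days after inoculation against solvent-treated controls.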

Data set [8] concerns Sphaerotheca fuliginea. In words: Example B: in vivo preventive test on Sphaerotheca fuliginea (powdery mildew on cucurbits), gherkin plants. To be noted: 500 ppm of active ingredient, grading 12 days after contamination. Put shortly:
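Gherkin plants grown at 24 °C were sprayed with compound at the Z11 cotyledon stage; controls received acetone/tween/DMSO/water without active. 24 h later, cotyledons were inoculated by spraying with Sphaerotheca fuliginea spores (100 000 spores per mL).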

In the case of `Cn1nc(C(F)F)c(C(=O)N(CC2CC3CCC2C3)C2CC2)c1F` (stereo not drawn) [Example 71], the Efficacy in data set [1], in data set [3], in data set [4], in data set [5] and in data set [6] was 100% throughout. For the same compound, in data set [2], the log partition coefficient (logP) is listed as 3.58.

Take `Cn1nc(C(F)F)c(C(=O)N(C2CC2)C2CC3CCCCC3C2)c1F` (stereo not drawn) [Example 12]: the Efficacy is reported as 100% in data set [1]; 94% in data set [7]; 100% in data set [3]; 100% in data set [4]; 98% in data set [8]; 100% in data set [5]. The Efficacy in data set [6] is reported as 93%. Besides, the logP in data set [2] is on record as 4.11.

On to `Cn1nc(C(F)F)c(C(=O)N(CC2(Cc3ccccc3)CC3CCC2C3)C2CC2)c1F` (stereo not drawn) [Example 69], for which the Efficacy is listed as 100% in data set [1]; 81% in data set [7]; 93% in data set [3]; 100% in data set [8]; 100% in data set [5]; 100% in data set [6]. Besides, in data set [2], the logP is 4.91.

Turning to `Cn1nc(C(F)F)c(C(=O)N(C2CC2)C2CCCC3CCCC32)c1F` (stereo not drawn) [Example 19], the Efficacy in data set [1], in data set [7], in data set [3], in data set [4], in data set [8] and in data set [5] was 100% throughout. Also, the Efficacy in data set [6] was found to be 100%. Besides, the lipophilicity (logP) in data set [2] worked out at 3.99.

On to `Cn1nc(C(F)F)c(C(=O)N(CC2CCC3CCCC3C2)C2CC2)c1F` (stereo not drawn) [Example 62], for which the Efficacy in data set [1] turned out to be 100%; in data set [7], 98%; in data set [3] it was 100%; in data set [4] it was 100%; in data set [8] it was 100%; in data set [5] it was 100%. The Efficacy in data set [6] came out at 100%. Moreover, the logP in data set [2] is recorded as 4.41.

For `Cn1cc(C(=O)N(C2CC2)C2CCCC3CCCC32)c(C(F)F)n1` (stereo not drawn) [Example 20], the Efficacy in data set [1] came out at 100%; in data set [7], 81%; in data set [3], 100%; in data set [4] it was 78%; in data set [8] it was 100%; in data set [5], 95%. The Efficacy in data set [6] is 86%. The logP in data set [2] was 3.48.

In the case of `CC(C1CC2CCC1C2)N(C(=O)c1c(C(F)F)nn(C)c1F)C1CC1` (stereo not drawn) [Example 93], the Efficacy in data set [1] amounted to 83%; in data set [3], 100%; in data set [4] it was 100%; in data set [5] it was 100%; in data set [6], 100%. Moreover, the log partition coefficient (logP) in data set [2] was 4.01.
